The record followed here is ChEMBL document CHEMBL5120865, “Exploration of 6-methyl-7-(Hetero)Aryl-7-Deazapurine ribonucleosides as antileishmanial agents” (Eur J Med Chem, 2022).

As usually defined, the CL/F is the apparent clearance, not corrected for the fraction that reaches the circulation. By Cmax is commonly meant the peak of the concentration-time curve. For orientation: AUC means the area under the concentration-time curve, a measure of exposure. What is called EC50 is the midpoint of the concentration-response curve.

A short description of data set [1]: Clearance in golden hamster infected with Leishmania infantum MHOM/MA(BE)/67 amastigotes at 50 mg/kg, po SID and measured after 10 days by LC-MS/MS analysis. The data set is classed as ADME, organism-based, Mesocricetus auratus. The settings on record: in vivo, time 10 day.
Data set [2] can be described thus: Cmax in golden hamster infected with Leishmania infantum MHOM/MA(BE)/67 amastigotes at 50 mg/kg, po SID and measured after 24 hrs by LC-MS/MS analysis. The data set is classed as ADME, organism-based, Mesocricetus auratus. Details: time 24 hrs, dose 50 mg/kg, route po. The note with it: in vivo.
A short description of data set [3]: Metabolic stability in golden hamster liver microsomes S9 fraction assessed as UGT-mediated metabolism by measuring parent compound remaining measured after 30 mins in presence of NADPH. The settings on record: read-out: Stability. The data set is classed as ADME, subcellular, Mesocricetus auratus.
Data set [4] can be described thus: Volume of distribution in golden hamster infected with Leishmania infantum MHOM/MA(BE)/67 amastigotes at 50 mg/kg, po SID and measured after 24 hrs by LC-MS/MS analysis. The note with it: in vivo. The data set is classed as ADME, organism-based, Mesocricetus auratus.
Data set [5] is described as follows: AUC (0 to 24) in golden hamster infected with Leishmania infantum MHOM/MA(BE)/67 amastigotes at 50 mg/kg, po SID and measured after 10 days by LC-MS/MS analysis. The data set is classed as ADME, organism-based, Mesocricetus auratus. Details: dose 50 mg/kg, time 10 day, route po. The settings on record: in vivo.
Data set [6] in a line: Clearance in golden hamster infected with Leishmania infantum MHOM/MA(BE)/67 amastigotes at 50 mg/kg, po SID and measured after 24 hrs by LC-MS/MS analysis. The class given is ADME, organism-based, Mesocricetus auratus. The settings on record: in vivo.
A short description of data set [7]: Metabolic stability in golden hamster liver microsomes S9 fraction assessed as CYP450-mediated metabolism by measuring parent compound remaining measured after 60 mins in presence of NADPH. The class given is ADME, subcellular, Mesocricetus auratus. The note with it: read-out: Stability.
Data set [8] concerns Leishmania infantum. Description: Antileishmanial activity against intracellular Leishmania infantum MHOM/MA(BE)/67 amastigotes infected in golden hamster assessed as reduction of amastigote burdens in spleen at 50 mg/kg, po SID for 10 days by geimsa staining based microscopic analysis. The class given is functional. Details: scale not given: the % may be the effect or the level left. The note with it: time 10 day.

Data set [9] is described as follows: Metabolic stability in mouse liver microsomes S9 fraction assessed as CYP450-mediated metabolism by measuring parent compound remaining measured after 30 mins in presence of NADPH. The data set is classed as ADME, subcellular. The settings on record: read-out: Stability. A general note: Liver microsomes are vesicles of endoplasmic reticulum, rich in cytochrome P450 enzymes.

Data set [10] in a line: Metabolic stability in mouse liver microsomes S9 fraction assessed as UGT-mediated metabolism by measuring parent compound remaining measured after 60 mins in presence of NADPH. The data set is classed as ADME, subcellular. The settings on record: read-out: Stability.
Data set [11] concerns the target T1, UDP-glucuronosyltransferases (UGTs) (Homo sapiens, UniProt O60656+O75310+O75795+P06133+P0DTE4+P0DTE5+P16662+P19224+P22309+P22310+P35503+P35504+P36537+P54855+Q6UWM9+Q9BY64+Q9HAW7+Q9HAW8+Q9HAW9). Description: Metabolic stability in human liver microsomes S9 fraction assessed as UGT-mediated metabolism by measuring parent compound remaining measured after 30 mins in presence of NADPH. The data set is classed as ADME, subcellular. The settings on record: read-out: Stability.

A short description of data set [12]: Metabolic stability in mouse liver microsomes S9 fraction assessed as UGT-mediated metabolism by measuring parent compound remaining measured after 30 mins in presence of NADPH. The data set is classed as ADME, subcellular. The settings on record: read-out: Stability.
The test system of data set [13] is Leishmania infantum. Description: Antileishmanial activity against sodium stibogluconate, potassium antimonyl tartrate and PMM resistant intracellular Leishmania infantum MHOM/FR/96/LEM3323-CI4 PMM promastigotes infected in Swiss mouse peritoneal macrophages assessed as inhibition of parasite growth measured after 96 hrs by microscopic analysis. The data set is classed as functional, organism-based. The settings on record: Peritoneal macrophage.

For data set [14], the target named is T1, UDP-glucuronosyltransferases (UGTs). The data set is described as follows: Metabolic stability in human liver microsomes S9 fraction assessed as UGT-mediated metabolism by measuring parent compound remaining measured after 60 mins in presence of NADPH. The data set is classed as ADME, subcellular. The settings on record: read-out: Stability.
The nature of data set [15]: Volume of distribution in golden hamster infected with Leishmania infantum MHOM/MA(BE)/67 amastigotes at 50 mg/kg, po SID and measured after 10 days by LC-MS/MS analysis. The class given is ADME, organism-based, Mesocricetus auratus. The note with it: in vivo, 240 h, time 10 day.
The nature of data set [16]: Toxicity in golden hamster infected with Leishmania infantum MHOM/MA(BE)/67 amastigotes assessed as body weight loss at 50 mg/kg, po SID and administered for 10 days and measured twice weekly. The class given is organism-based, Mesocricetus auratus. The note with it: in vivo, 240 h, time 10 day.
A short description of data set [17]: Selectivity index, ratio of CC50 for Cytotoxicity against Swiss mouse peritoneal macrophages to EC50 for intracellular Leishmania infantum MHOM/MA(BE)/67 ITMAP263 amastigotes infected in Swiss mouse peritoneal macrophages. The note with it: read-out: Ratio CC50/EC50. The data set is classed as toxicity, cell-based.

Values joined by “and” are separate entries in the source; they are usually repeats but may differ in a detail not shown here. Identical values can stand only once.

As for `Cc1ncnc2c1c(-c1cc(Cl)ccn1)cn2[C@@H]1O[C@H](CO)[C@@H](O)[C@H]1O`, the figures for the CL/F in data set [1] and in data set [6] were 34.7 mL/min/kg and 56.6 mL/min/kg, respectively. Besides, the peak concentration (Cmax) in data set [2] is 1100 ng/mL and 2.9 µM. Moreover, the remaining at 0.5 h in data set [3] was found to be 92%; in data set [9] it was 86%; in data set [11], 96%; in [12], 102%. Besides, the Vd in [4] was 13 L/kg; in data set [15], 5.14 L/kg. Further, the exposure (AUC) at 240 h in data set [5] worked out at 3380 ng·h/mL. Moreover, the remaining at 1 h in data set [7] was found to be 87%; in data set [10], 100%; in data set [14], 98%. In addition, the Activity in the data set with Leishmania infantum [8] is given as -1.8%; in [16], “Non-Toxic”. Moreover, in the data set on Leishmania infantum [13], the EC50 was found to be 790 nM. For the same molecule, the selectivity ratio in data set [17] was above 94.
